Assays:
[1] = Plasma concentration in PKPD time course (established OIPN); format: in vivo, male Sprague Dawley rats; conditions: OIPN rats, single 100 mg/kg PO
Method: The doses were based on previous studies that used these antagonists in animal models of CIPN.[33]–[37]
Quantitative bioanalysis by LC-MS/MS of plasma and spinal cord levels of ART26.12 was carried out by a commercial supplier (Sygnature Discovery, Nottingham, UK).

[2] = system: CCK1, CCK2, δ (DOP), cathepsin G; test: Subsequent functional assessment of secondary pharmacology hits; format: biochemical
Excerpt: Findings were considered significant if ≥50% inhibition of ligand binding or ≥50% stimulation/inhibition were shown in biochemical assays. Those receptors with values ≥50% were further evaluated for binding and functional half-maximal inhibitory concentrations (IC50).

in vivo = test: in vivo; set-up: species or system Wistar Han rats; conditions: both sexes, Wistar Han, rat, po, 500 mg/kg
Method: Twenty-nine male and 29 female Wistar Han rats were assigned to 7 groups (4 main and 3 toxicokinetic (TK) groups), with 5 rats/sex/group in the main groups and […] in TK groups. Dose formulations were administered twice daily by oral gavage at 100, 300, and 1,000 mg/kg/day (50, 150, and 500 mg/kg/dose) for 14 consecutive days, with a vehicle control group dosed in the same manner. Toxicity was assessed based on clinical signs, daily body weights, food consumption, organ weights, clinical, gross, and anatomic pathology.

[3] = system: paclitaxel-induced peripheral neuropathy; conditions: male and female rats, similar efficacy; cited from earlier work
[4] = Oral bioavailability / pharmacokinetics in rats; format: in vivo; conditions: Sprague Dawley, rat, plasma, male rats
Method: Following intravenous and oral administration, blood samples (ca .2 mL) were collected from the jugular vein. For IV group, blood samples were collected at .083, .25, .5, 1, 2, 4, 6, 8, 24 hours post-dose. For PO group, blood samples were collected at .25, .5, 1, 2, 4, 6, 8, 24 hours post-dose. Blood samples were collected into tubes containing the anticoagulant K2EDTA. Plasma samples were prepared by centrifugation and dispensed into 1.5 mL matrix tubes and stored in a freezer (−75 ± 1°C) prior to analysis.

[5] = system: oxaliplatin-induced thermal hyperalgesia; test: 7-day treatment of established OIPN, cold plate latency; format: in vivo, male Sprague Dawley rats; conditions: 7 days dosing, vehicle close to HBL by Day 14
Method: Male Sprague Dawley rats (150–210 g) were housed in groups of 4 in intra-ventilated Perspex home cages. Humidity, temperature (21 ± 1 °C), and lighting (light-dark cycle of 12:12 hours) were controlled and maintained in the home cages, with food and water available ad libitum. Rats acclimatised to the home cages for at least 1 week. All experiments were carried out according to the Animals (Scientific Procedures) Act, 1986 (U.K. Government Home Office). The study was performed under the Home Office project licence number PP0847012. OIPN was established with a single dose of OXA (10 mg/kg, IP). […] Body weight was monitored throughout the study, and terminal plasma and whole brain samples were taken for bioanalysis. Thermal hyperalgesia was assessed using a cold plate (Bioseb, France) set at a fixed temperature of 15 °C. Latency to the first escape behaviour from the plate was measured indicating discomfort to the thermal stimulation. Escape behaviours typically consist of paw licking, jumping, or withdrawal. The maximal threshold of latency was set at 150 seconds. To acquire baseline readings, pain behaviour was assessed on 3 consecutive days (Days −3, −2, −1). The mean of Day −2 and Day −1 was considered the healthy baseline (HBL) prior to OIPN induction. […] NPB expressed as a percentage change from HBL was calculated as follows (HBL-NPB)/HBL*100. […]

[6] = system: oxaliplatin-induced thermal hyperalgesia; test: Prevention of OIPN, cold plate latency; format: in vivo, male Sprague Dawley rats; conditions: 25 mg/kg BID, P < .001
Method: Male Sprague Dawley rats (150–210 g) were housed in groups of 4 in intra-ventilated Perspex home cages. Humidity, temperature (21 ± 1 °C), and lighting (light-dark cycle of 12:12 hours) were controlled and maintained in the home cages, with food and water available ad libitum. Rats acclimatised to the home cages for at least 1 week. All experiments were carried out according to the Animals (Scientific Procedures) Act, 1986 (U.K. Government Home Office). The study was performed under the Home Office project licence number PP0847012. OIPN was established with a single dose of OXA (10 mg/kg, IP).
Pain measurements were made on Days 5/6 (when neuropathy has normally developed) and at the end of the study. […] Terminal plasma samples were taken for bioanalysis and proteomics (Somalogic). […]
Thermal hyperalgesia was assessed using a cold plate (Bioseb, France) set at a fixed temperature of 15 °C. Latency to the first escape behaviour from the plate was measured indicating discomfort to the thermal stimulation. […]
To acquire baseline readings, pain behaviour was assessed on 3 consecutive days (Days −3, −2, −1). […] NPB expressed as a percentage change from HBL was calculated as follows (HBL-NPB)/HBL*100. […]

[7] = Terminal plasma and brain concentrations, OIPN treatment study; format: in vivo; conditions: after 7 days dosing 25 mg/kg BID
Excerpt: Body weight was monitored throughout the study, and terminal plasma and whole brain samples were taken for bioanalysis.

[8] = system: painful diabetic neuropathy; conditions: cited from earlier work
[9] = Terminal plasma levels, OIPN prevention study; format: in vivo, male Sprague Dawley rats
Excerpt: Pain measurements were made on Days 5/6 (when neuropathy has normally developed) and at the end of the study. […] Terminal plasma samples were taken for bioanalysis and proteomics (Somalogic). Brain regions involved in pain processing, that is, prefrontal cortex (PFC), periaqueductal grey (PAG), whole spinal cords (SC), and L4-L6 dorsal root ganglia, were collected for lipidomic and genomic (Genewiz, China) analyses.

For `COc1ccccc1[C@@H]1[C@H](C(=O)O)[C@@H](c2ccccc2OC)[C@H]1C(=O)OC1Cc2ccccc2C1` [ART26.12, (+)–3-Indan-2-yloxycarbonyl-2,4-bis(2-methoxyphenyl)cyclobutanecarboxylic acid], the “peak total plasma concentration” value ([1]; mean ± SEM) was 122 ± 13 µM, the Tmax ([1]; male, Sprague Dawley, rat, plasma, read-out: time of peak plasma concentration) was roughly 3 h and the “functional assessment at the 4 off-targets” value [2] was “not physiologically relevant”. For the same compound, the NOAEL at 14 days (in vivo) was 1000 mg/kg/day, the “effect on paclitaxel-induced peripheral neuropathy” value [3] was “prevents paclitaxel-induced peripheral neuropathy” and the clearance ([4]; IV 2 mg/kg) was 14 mL/min/kg. For the same compound, the half-life ([4]; IV 2 mg/kg) was 2.6 h, the Vd ([4]; IV 2 mg/kg, read-out: volume of distribution) was 1.3 L/kg and the Tmax ([4]; PO 10 mg/kg) was roughly 0.5 h. The Tmax ([4]; PO 300 mg/kg) was roughly 6.6 h, the bioavailability ([4]; PO 300 mg/kg) was 163% and the half-life ([4]; PO 300 mg/kg) was 3.8 h. For the same compound, the bioavailability ([4]; single oral dose 10 mg/kg) was 73%, the cold plate latency [5] was “no effect on cold plate latency” and the “cold plate latencies on Day 14 versus vehicle” value [6] was “significantly higher cold plate latencies than the vehicle group”. For the same compound, the “average total plasma concentration” value [7] was 6.5 ± .6 µM, the total brain concentration [7] was “.15 ± .02 µM” and the “effect on established painful diabetic neuropathy” value [8] was “treats established painful diabetic neuropathy”. For the same compound, the “mean plasma levels on Day 15” value ([9]; 10 mg/kg BID) was 4.49 ± .99 µM and the “mean plasma levels on Day 15” value ([9]; 25 mg/kg BID) was 7.45 ± 1.58 µM.
